Laboratory results published in patent US11786608B2, “Isoquinolinyl triazolone complexes” (Takeda Pharmaceutical Company Limited, priority 2016, dated 2023).

Biological target: human BTK (Homo sapiens (Human), UniProt Q06187)
Assay: BTK inhibition assay (phosphorylation of 5-FAM-labeled substrate, Caliper LC-3000)
Type: biochemical
Settings: residues 382 to 659 of human BTK; 60 minutes at room temperature
Source text: The activity of compound of Formula 1, stereoisomer thereof, or tautomers of the compound as Formula 1 or stereoisomer thereof, as BTK inhibitors may be determined by a variety of methods, including in vitro and in vivo methods. The following in vitro assay measures a test compound's ability to inhibit BTK-mediated phosphorylation of a FAM-labeled substrate, 5-FAM-[…]-NH2.
Purified BTK may be obtained as follows (Clone SBVC-1603_9P is used). A cDNA sequence encoding residues 382 to 659 of human BTK is cloned into the vector pSXB4. This construct engineers an in-frame translational fusion with the Glutathione-S-Transferase (GST) protein for use in affinity purification. The fusion protein derived from this construct contains a protease recognition sequence to liberate the BTK from the GST affinity tag. High-titer baculoviral stocks, generated using the Bac-to-Bac® system (Invitrogen), are used to express the recombinant protein in Spodoptera frugiperda Sf9 cells in 10 L Wave bags. Recombinant proteins are isolated from cellular extracts by passage over Glutathione Sepharose 4B (GE Healthcare) and the BTK moiety is released from the GST affinity tag by treatment with PreScission protease. […] The purity of the fractions is assessed by SDS PAGE and the peak protein fractions are pooled and concentrated using Amicon Ultra-15 Centrifugal Filter Devices (Millipore).

Chain of human BTK (Q06187 382-659): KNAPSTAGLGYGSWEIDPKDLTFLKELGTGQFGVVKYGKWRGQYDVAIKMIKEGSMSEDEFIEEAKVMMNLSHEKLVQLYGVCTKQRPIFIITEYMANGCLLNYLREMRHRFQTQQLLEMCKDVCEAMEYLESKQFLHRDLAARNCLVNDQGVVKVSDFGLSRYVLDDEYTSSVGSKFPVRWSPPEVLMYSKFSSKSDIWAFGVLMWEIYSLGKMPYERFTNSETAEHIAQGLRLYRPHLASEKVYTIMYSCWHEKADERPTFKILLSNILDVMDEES

## C=CC(=O)N1CC[C@H](Oc2nc(-c3n[nH]c(=O)[nH]3)cc3ccccc23)C1 [Example 1, (S)-3-(1-((1-acryloylpyrrolidin-3-yl)oxy)isoquinolin-3-yl)-1H-1,2,4-triazol-5(4H)-one]
  BTK Inhibition (pIC50): >8.7
